In general, IC50 refers to the concentration needed to halve the response being measured. Lower therefore signals inhibition by little substance.

The target of the assay is Fibroblast growth factor receptor 2 (Homo sapiens, UniProt P21802). In words: FGFR2 Biochemical Caliper Assay. As to the method: Compounds of the present invention were also tested in a FGFR2 Biochemical Caliper Assay. Compounds were prepared in 10 mM DMSO solution and serially diluted into 11 concentrations by 3-fold dilution. […] 5 uL of ATP solution (100 uM) was added to start the reaction and the plate was incubated for 90 minutes, then 70 uL of stopping buffer (0.5M EDTA) was added to terminate the reaction. Each well was analyzed using EZ reader.
Chain of Fibroblast growth factor receptor 2 (P21802 whole entry): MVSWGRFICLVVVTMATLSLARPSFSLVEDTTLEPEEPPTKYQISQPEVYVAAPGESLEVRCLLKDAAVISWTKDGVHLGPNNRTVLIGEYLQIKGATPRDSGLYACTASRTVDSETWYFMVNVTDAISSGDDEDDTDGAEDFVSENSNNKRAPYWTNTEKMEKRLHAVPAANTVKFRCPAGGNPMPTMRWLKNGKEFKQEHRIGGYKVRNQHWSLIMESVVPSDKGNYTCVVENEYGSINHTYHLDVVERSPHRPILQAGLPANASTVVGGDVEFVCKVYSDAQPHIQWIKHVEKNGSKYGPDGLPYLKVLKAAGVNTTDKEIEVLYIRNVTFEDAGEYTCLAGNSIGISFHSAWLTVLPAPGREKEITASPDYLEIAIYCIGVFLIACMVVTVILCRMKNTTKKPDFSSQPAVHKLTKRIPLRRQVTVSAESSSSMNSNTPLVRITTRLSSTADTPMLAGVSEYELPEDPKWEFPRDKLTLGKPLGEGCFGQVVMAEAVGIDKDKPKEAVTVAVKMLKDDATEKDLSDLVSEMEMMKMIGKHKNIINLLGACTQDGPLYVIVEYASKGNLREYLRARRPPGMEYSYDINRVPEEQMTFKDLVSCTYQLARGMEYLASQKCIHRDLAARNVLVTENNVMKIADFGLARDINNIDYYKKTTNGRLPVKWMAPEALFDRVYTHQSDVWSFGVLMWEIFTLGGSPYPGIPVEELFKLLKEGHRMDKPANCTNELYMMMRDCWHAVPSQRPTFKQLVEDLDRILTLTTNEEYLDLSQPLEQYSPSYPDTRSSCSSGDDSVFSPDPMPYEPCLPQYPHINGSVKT

On to `C=CC(=O)Nc1ccc(-c2c(-c3ccc(Oc4ccccc4)c(OC)c3)c3c(N)ncnc3n2C)cc1` [US11780845, Example 12], for which the IC50 was under 100 nM.
The same measure for `CC#CC(=O)Nc1ccc(-c2c(-c3ccc(Oc4cccc(C)n4)c(OC)c3)c3c(N)ncnc3n2C)cc1`: under 100 nM.
Regarding `CC#CC(=O)N(C)c1ccc(-c2c(-c3ccc(Oc4cccc(C)n4)c(OC)c3)c3c(N)ncnc3n2C)cc1` [US11780845, Example 26], the IC50 was under 100 nM.
On to `C=CC(=O)Nc1ccc(-c2c(-c3ccc(Oc4cccc(C)c4)c(OC)c3)c3c(N)ncnc3n2C)cc1` [US11780845, Example 27], for which the half-maximal inhibitory concentration (IC50) is under 100 nM.

The record behind these values is BindingDB's records for patent US11780845 (Relay Therapeutics, 2023).
